Laboratory results taken from doi:10.1101/2022.04.05.487101v2 (biorxiv, 2022).

Molecular target: SOX2 (Homo sapiens, UniProt P48431)
Test: competitive EMSA
Type: binding
Settings: 300 uM compound; pH 7.5; competes with DNA; off-target control

SOX2, sequence (P48431 whole entry): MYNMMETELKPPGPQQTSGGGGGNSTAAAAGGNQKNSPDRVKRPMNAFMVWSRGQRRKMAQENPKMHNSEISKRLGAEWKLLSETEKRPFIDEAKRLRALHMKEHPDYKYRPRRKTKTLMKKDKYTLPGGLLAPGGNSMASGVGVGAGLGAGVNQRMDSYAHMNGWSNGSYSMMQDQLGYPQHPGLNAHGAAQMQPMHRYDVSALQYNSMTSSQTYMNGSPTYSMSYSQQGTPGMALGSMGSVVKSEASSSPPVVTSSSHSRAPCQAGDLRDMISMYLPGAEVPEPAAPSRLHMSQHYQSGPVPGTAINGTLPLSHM

- competitive EMSA (loss of shifted biotin-DNA probe): SOX2 was competed by Compound A only
SMILES: Cc1cc2nc(-c3cccc(NC(=O)c4ccc(C)c([N+](=O)[O-])c4)c3)oc2cc1C [A, Compound A]
